In general, inhibition in vivo refers to the change of the read-out against control, counted positive when it falls. What is called Ki is a dissociation constant, usually derived from enzyme kinetics or from competition with a known ligand. High values mean lower affinity, low ones higher affinity.

Results on 15 compounds are retold here after ChEMBL document CHEMBL4342407, “Thieno[2,3-d]pyrimidine as a promising scaffold in medicinal chemistry: Recent advances” (Bioorg Med Chem, 2019).

The subject of data set [1] is Staphylococcus aureus. Briefly: Antibacterial activity against Staphylococcus aureus assessed as zone inhibition at 100 ug/ml. Type of data set: functional. The following applies: read-out: IZ.
Data set [2] relates to Bacillus subtilis. As to the kind of experiment: Antibacterial activity against Bacillus subtilis assessed as zone inhibition at 100 ug/ml. The following applies: read-out: IZ. Format: functional.
Data set [3] deals with Escherichia coli. As to the kind of experiment: Antibacterial activity against Escherichia coli assessed as zone inhibition at 100 ug/ml. Format: functional. The following applies: read-out: IZ.
Another data set concerns Klebsiella pneumoniae. As to the kind of experiment: Antibacterial activity against Klebsiella pneumoniae assessed as zone inhibition at 100 ug/ml. Format: functional. The following applies: read-out: IZ.
The subject of data set [4] is Rattus norvegicus. Briefly: Antiinflammatory activity in gamma irradiated rat assessed as reduction in serum IL-6 level at 150 mg/kg, ip administered once daily for 7 consecutive days by ELISA (reference value: 103.87 +/- 3.273 pg/ml). Type of data set: functional. (In general: In an ELISA, binding on a coated surface is turned into a signal by an enzyme label.)
The test system of data set [5] is Rattus norvegicus. As to the kind of experiment: Antiinflammatory activity in gamma irradiated rat assessed as reduction in serum TNFalpha level at 150 mg/kg, ip administered once daily for 7 consecutive days by ELISA (reference value: 105.07 +/- 3.925 pg/ml). Type of data set: functional.
Data set [6] has as its system Rattus norvegicus. As to the kind of experiment: Antiinflammatory activity in gamma irradiated rat assessed as reduction in NFkappaB level in liver tissue homogenates at 150 mg/kg, ip administered once daily for 7 consecutive days by ELISA (reference value: 258.33 +/- 4.216 pg/ml). Format: functional.
The test system of data set [7] is Rattus norvegicus. As to the kind of experiment: Antiinflammatory activity in gamma irradiated rat assessed as reduction in COX-2 level in liver tissue homogenates at 150 mg/kg, ip administered once daily for 7 consecutive days by ELISA (reference value: 89.50 +/- 2.617 ng/ml). Type of data set: functional.
The next data set relates to Mus musculus. As to the kind of experiment: Analgesic activity in Swiss albino mouse assessed as protection against acetic acid-induced writhing at 15 mg/kg, po pretreated for 30 mins followed by acetic acid challenge and measured after 20 mins relative to control. Type of data set: functional.
The nature of data set [8]: Ulcerogenic activity in Sprague-Dawley rat assessed as ulcer index at 20 mg/kg, ip pretreated followed by pylorus ligation and measured at 4 hrs post ligation. Type of data set: toxicity, organism-based. The following applies: in vivo.
The subject of data set [9] is Rattus norvegicus. As to the kind of experiment: Antiinflammatory activity in Sprague-Dawley rat assessed as inhibition of carrageenan-induced edema at 15 mg/kg, po pretreated for 1 hr followed by carrageenan challenge and measured after 4 hrs by mercury plethysmometer relative to control. Type of data set: functional.
In data set [10] the test system is Human alphaherpesvirus 1. As to the kind of experiment: Antiviral activity against Herpes simplex virus 1 at 50 ug/10^5. Format: functional.
Data set [11] concerns Human alphaherpesvirus 1. Briefly: Antiviral activity against Herpes simplex virus 1 at 20 ug/10^5. Format: functional.
The species entered for data set [12] is Homo sapiens. As to the kind of experiment: Selectivity ratio of Ki for human A2A receptor expressed in CHO cells to Ki for human A3 receptor expressed in CHO cells. Type of data set: cell-based.
The target in a further data set is Adenosine receptor A2a (Homo sapiens, UniProt P29274). As to the kind of experiment: Displacement of [3H]-NECA from human A2A receptor expressed in CHO cells by radioligand competitive binding assay. Format: cell-based. A general note: In a radioligand displacement assay an active substance lowers the binding of a labelled ligand.
The target of another data set is T1, Adenosine receptor A3 (Homo sapiens, UniProt P0DMS8).
T1 sequence (P0DMS8 whole entry): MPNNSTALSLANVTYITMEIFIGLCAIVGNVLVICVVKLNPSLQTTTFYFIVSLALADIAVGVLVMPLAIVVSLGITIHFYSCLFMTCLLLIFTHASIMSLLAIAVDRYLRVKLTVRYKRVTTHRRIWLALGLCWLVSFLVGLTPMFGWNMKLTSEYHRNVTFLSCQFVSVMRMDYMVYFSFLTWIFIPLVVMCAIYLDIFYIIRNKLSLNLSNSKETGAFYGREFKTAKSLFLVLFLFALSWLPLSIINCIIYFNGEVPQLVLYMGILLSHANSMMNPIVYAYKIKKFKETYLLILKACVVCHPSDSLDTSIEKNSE
As to the kind of experiment: Displacement of [3H]-HEMADO from human A3 receptor expressed in CHO cells by radioligand competitive binding assay. Type of data set: cell-based.

The next data set concerns the target T2, Adenosine receptor A1 (Homo sapiens, UniProt P30542).
T2 sequence (P30542 whole entry): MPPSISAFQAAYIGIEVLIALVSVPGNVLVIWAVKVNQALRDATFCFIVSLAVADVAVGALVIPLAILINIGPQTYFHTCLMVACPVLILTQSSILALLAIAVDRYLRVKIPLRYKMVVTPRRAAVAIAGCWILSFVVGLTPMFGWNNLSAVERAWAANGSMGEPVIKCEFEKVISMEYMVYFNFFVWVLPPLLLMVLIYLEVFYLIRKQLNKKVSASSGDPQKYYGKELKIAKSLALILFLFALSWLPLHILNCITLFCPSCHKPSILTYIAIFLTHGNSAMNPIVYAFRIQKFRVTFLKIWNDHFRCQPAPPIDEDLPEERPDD
Briefly: Displacement of [3H]-CCPA binding from human A1 receptor expressed in CHO cells by radioligand competitive binding assay. Format: cell-based.

Data set [13] is filed under the species Homo sapiens. As to the kind of experiment: Selectivity ratio of Ki for human A1 receptor expressed in CHO cells to Ki for human A2A receptor expressed in CHO cells. Format: cell-based.
Data set [14] is filed under the species Homo sapiens. Briefly: Selectivity ratio of Ki for human A1 receptor expressed in CHO cells to Ki for human A3 receptor expressed in CHO cells. Type of data set: cell-based.
The test system of another data set is Hepatovirus A. Briefly: Antiviral activity against Hepatitis A virus infected in HepG2 cells assessed as virus inhibition at 40 ug/L incubated overnight with virus followed by inoculation and measured after 1 hr by crystal violet staining based plaque reduction assay. Type of data set: functional. For orientation: In a plaque reduction assay, fewer plaques than in the control indicate reduced infectivity or spread.

The test system of data set [15] is Escherichia coli. Briefly: Antibacterial activity against Escherichia coli assessed as zone inhibition at 500 ug/ml by cup plate agar diffusion method. Type of data set: functional. The following applies: read-out: IZ.
For data set [16], the system named is Bacillus subtilis. Briefly: Antibacterial activity against Bacillus subtilis assessed as zone inhibition at 500 ug/ml by cup plate agar diffusion method. Type of data set: functional. The following applies: read-out: IZ.
For a further data set, the system named is Pseudomonas aeruginosa. Briefly: Antibacterial activity against Pseudomonas aeruginosa assessed as zone inhibition at 500 ug/ml by cup plate agar diffusion method. The following applies: read-out: IZ. Format: functional.
In a further data set the test system is Candida albicans. Briefly: […] activity against Candida albicans assessed as zone inhibition at 500 ug/ml by cup plate agar diffusion method. Format: functional. The following applies: read-out: IZ.
Data set [17] concerns Staphylococcus aureus. Briefly: Antibacterial activity against Staphylococcus aureus assessed as zone inhibition at 500 ug/ml by cup plate agar diffusion method. Type of data set: functional. The following applies: read-out: IZ.

Sequence of Adenosine receptor A2a (P29274 whole entry): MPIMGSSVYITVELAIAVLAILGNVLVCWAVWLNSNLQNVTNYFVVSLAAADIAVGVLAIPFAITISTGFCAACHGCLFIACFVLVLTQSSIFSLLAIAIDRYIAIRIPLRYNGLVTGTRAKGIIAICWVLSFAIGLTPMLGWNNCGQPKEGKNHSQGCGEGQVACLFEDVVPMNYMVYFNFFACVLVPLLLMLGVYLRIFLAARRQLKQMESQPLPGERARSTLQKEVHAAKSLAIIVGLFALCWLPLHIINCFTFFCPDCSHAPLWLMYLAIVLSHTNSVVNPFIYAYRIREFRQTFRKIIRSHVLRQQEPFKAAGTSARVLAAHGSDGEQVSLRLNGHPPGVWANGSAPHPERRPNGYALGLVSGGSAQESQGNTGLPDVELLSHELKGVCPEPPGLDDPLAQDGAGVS

On to `c1cnc(C2=NOC(c3cc4cncnc4s3)C2)cn1` (centres undefined), for which the zone of inhibition at 100 µg/mL with Staphylococcus aureus [1] was determined as 11.5 mm; with Bacillus subtilis [2], 11 mm; with Escherichia coli [3] it was 13 mm; in the data set on Klebsiella pneumoniae, 12.5 mm.

In the case of `CCOC(=O)c1sc2ncnc(N[C@@H](CCSC)C(=O)O)c2c1C`, in the data set with Rattus norvegicus [4], the “Serum IL-6 level” value is 45.72 pg/mL. In the data set on Rattus norvegicus [5], the “Serum TNFalpha level” value amounted to 38.5 pg/mL. For the same compound, in the data set on Rattus norvegicus [6], the “NFkappaB level in liver tissue” value worked out at 66.17 pg/mL. For the same compound, in the data set on Rattus norvegicus [7], the “COX-2 level in liver homogenate” value came out at 28.5 ng/mL.

Consider `CC(=O)Cc1c(C(C)C)sc2nc(C)[nH]c(=O)c12`, for which, in the data set on Mus musculus, the Activity is given as 59%. Besides, the UI in [8] is on record as 1.1. Moreover, the inhibition in vivo at 15 mg/kg in the data set on Rattus norvegicus [9] was 74.5%.

Regarding `OCCSc1ncnc2sc3c(c12)-c1ccccc1CC3`, the Activity with Human alphaherpesvirus 1 [10] is on record as 30%; in the data set on Human alphaherpesvirus 1 [11], 5%.

Consider `COCCSc1nc(C)nc2sc3c(c12)-c1ccccc1CC3`, for which the Activity turned out to be 45% in the data set on Human alphaherpesvirus 1 [10] and 5% with Human alphaherpesvirus 1 [11].

As for `FC(F)(F)Oc1ccc(C2=NOC(c3cc4cncnc4s3)C2)cc1` (centres undefined), the zone of inhibition at 100 µg/mL turned out to be 14.5 mm in the data set on Staphylococcus aureus [1], 12.5 mm with Bacillus subtilis [2], 16.5 mm in the data set with Escherichia coli [3] and 15 mm in the data set with Klebsiella pneumoniae.

For `CC(=O)Nc1nc2sc(C)c(C)c2c(=O)[nH]1`, the Ratio Ki in the data set listed under Homo sapiens [12] was > 57; in the data set filed under Homo sapiens [13], > 1; in the data set filed under Homo sapiens [14] it was > 57. Moreover, the Ki on Adenosine receptor A2a was > 30000 nM; on Adenosine receptor A3 it was 524 nM; on Adenosine receptor A1, > 30 µM.

Take `CC(=O)OC[C@H]1O[C@@H](Sc2nc3sc4c(c3c(=O)n2Cc2ccccc2)CCCCC4)[C@H](OC(C)=O)[C@@H](OC(C)=O)[C@@H]1OC(C)=O`: the “inhibition (INH)” value with Hepatovirus A is 55%.

As for `NC12CC3CC(CC(C3)C1)C2` [AMANTADINE], the “inhibition (INH)” value in the data set on Hepatovirus A is 55%.

Take `CCOC(=O)c1sc2ncnc(NCC(=O)O)c2c1C`: the “Serum IL-6 level” value with Rattus norvegicus [4] was found to be 46.53 pg/mL. In addition, the “Serum TNFalpha level” value in the data set on Rattus norvegicus [5] was determined as 48.32 pg/mL. The “NFkappaB level in liver tissue” value with Rattus norvegicus [6] amounted to 89.83 pg/mL. The “COX-2 level in liver homogenate” value in the data set with Rattus norvegicus [7] came to 31.17 ng/mL.

Take `Cc1c(-c2ccccc2)sc2nc3n(-c4ccccc4)nc(-c4ccccc4)n3c(=O)c12`: the Activity in the data set on Mus musculus worked out at 52%. Further, the UI in [8] was 1.1. Besides, in the data set on Rattus norvegicus [9], the inhibition in vivo at 15 mg/kg was 74.6%.

Regarding `Cc1sc2nc(NC(=O)c3ccccc3)[nH]c(=O)c2c1C`, the Ratio Ki was 5.24 in the data set filed under Homo sapiens [12], > 46 in the data set filed under Homo sapiens [13] and > 240 in the data set listed under Homo sapiens [14]. The Ki at Adenosine receptor A2a was 650 nM; at Adenosine receptor A3, 124 nM; on Adenosine receptor A1 it was > 30 µM.

For `c1csc(C2=NOC(c3cc4cncnc4s3)C2)c1` (centres undefined), the zone of inhibition at 100 µg/mL in the data set with Staphylococcus aureus [1] amounted to 12.5 mm; in the data set with Bacillus subtilis [2] it was 11.5 mm; in the data set on Escherichia coli [3] it was 15.5 mm; with Klebsiella pneumoniae it was 14.5 mm.

For the compound `c1csc(C2=Nc3ccccc3SC(c3cc4cncnc4s3)C2)c1` (centres undefined), the zone of inhibition at 500 µg/mL in the data set on Escherichia coli [15] amounted to 19.4 mm; with Bacillus subtilis [16], 19.4 mm; in the data set with Pseudomonas aeruginosa, 19.4 mm; with Candida albicans it was 19.6 mm; in the data set on Staphylococcus aureus [17], 19.2 mm.

On to `c1ccc2c(c1)N=C(c1cnccn1)CC(c1cc3cncnc3s1)S2` (centres undefined), for which the zone of inhibition at 500 µg/mL amounted to 13.6 mm in the data set with Escherichia coli [15]; 16.2 mm in the data set with Bacillus subtilis [16]; 13.4 mm in the data set with Pseudomonas aeruginosa; 10.8 mm in the data set with Candida albicans; 15.7 mm with Staphylococcus aureus [17].
